# In patent US10105367B2, “Therapeutic thiophene-, furan-, and pyridine-fused azolopyrimidin-5-(6h)-ones” (Dart Neuroscience (Cayman) Ltd., priority 2012, dated 2018):
# pIC50: −log10 of the molar value.
# Target: human PDE1B (Homo sapiens (Human), UniProt Q01064)
# Assay: PDE1B inhibitory assay (IMAP TR-FRET)
# Conditions: 200 nM FAM-cAMP, Calmodulin, CaCl2; for pIC50: PDE1B pIC50, negative log of half-maximal molar inhibitory concentration; for PDE1B pIC50: negative log of half-maximal molar inhibitory concentration
# Procedure: PDE1B inhibition was determined by an IMAP TR-FRET assay.
# After a brief centrifugation, the plates were incubated for 30 minutes at room temperature. The assay was terminated by adding 5 μL IMAP binding reagent/Tb complex (Molecular Devices, Sunnyvale, Calif.) to each well.
# Plates were incubated 1 hour at room temperature and read on a Viewlux multimode plate reader (Perkin Elmer). The instrument was set to excite using the DUG11 filter and measure using 490/10 nm and 520/10 nm filters. Ratios of acceptor and donor were then calculated.
# For IC50 calculations, the values of % efficacy versus a series of compound concentrations were then plotted using non-linear regression analysis of sigmoidal dose-response curves generated with the equation Y=B+(T−B)/1+10((Log EC50−X)×Hill Slope), where Y=percent activity, B=minimum percent efficacy, T=maximum percent efficacy, X=logarithm of compound and Hill Slope=slope factor or Hill coefficient. The IC50 value was determined by the concentration causing a half-maximal percent efficacy.
SMILES,pIC50,PDE1B pIC50
COc1ccc(Cn2c(=O)n3ncnc3c3cc(CN4CCOCC4C)cnc32)cc1 (centres unmarked) [Example 230],6.00 to 7.00,
COc1ccc(Cn2c(=O)n3ncnc3c3c(C)c(CN4CCOCC4)sc32)cc1 [Example 44],,>7
COc1ccc(Cn2c(=O)n3ncnc3c3cc(CN4CCSCC4)cnc32)cc1 [Example 207],6.00 to 7.00,
COc1ccc(Cn2c(=O)n3ncnc3c3cc(CN4CC5CCC(C4)O5)cnc32)cc1 [Example 227],6.00 to 7.00,
COc1ccc(Cn2c(=O)n3ncnc3c3c4c(sc32)CN(C(=O)C2CCOC2)CC4(F)F)cc1 (centres unmarked) [Example 166],,>7
COc1ccc(Cn2c(=O)n3ncnc3c3cc(CN4CCN(C)CC4)cnc32)cc1 [Example 221],6.00 to 7.00,
O=c1n(Cc2ccc(Cl)cc2)c2sc3c(c2c2ncnn12)CCN(CC(F)(F)F)C3 [Example 107],6.00 to 7.00,
COc1ccc(Cn2c(=O)n3ncnc3c3c4c(sc32)CN(Cc2ccncc2)CC4)cc1 [Example 121],,>7
C[C@@H]1CN(Cc2cnc3c(c2)c2ncnn2c(=O)n3Cc2ccc(F)c(Br)c2)C[C@H](C)O1 [Example 278],6.00 to 7.00,
COc1ccc(Cn2c(=O)n3ncnc3c3c(C)c(CN4CC5CC4CO5)sc32)cc1 (centres unmarked) [Example 65],,>7
COc1ccc(Cn2c(=O)n3ncnc3c3ncc(CN4CCSCC4)cc32)cc1 [Example 243],5.00 to 6.00,
O=c1n(Cc2ccccc2)c2sc(Cc3ccccc3)cc2c2ncnn12 [Example 17],6.00 to 7.00,
COc1ccc(Cn2c(=O)n3ncnc3c3c4c(sc32)CN(Cc2ncccn2)CCC4)cc1 [Example 145],,>7
COc1ccc(Cn2c(=O)n3ncnc3c3c4c(sc32)CN(C(=O)C2CC2)CC4)cc1 [Example 159],,>7
COc1ccc(Cn2c(=O)n3ncnc3c3c4c(sc32)CN(CC2(C)COC2)CC4)cc1 [Example 111],,>7
COc1ccc(Cn2c(=O)n3ncnc3c3cc(N4CCC(N(C)C)C4)cnc32)cc1 (centres unmarked) [Example 198],6.00 to 7.00,
COc1ccc(Cn2c(=O)n3ncnc3c3cc(CN4CCOCC4)sc32)cc1 [Example 31],,>7
C[C@@H]1CN(Cc2cnc3c(c2)c2ncnn2c(=O)n3Cc2ccc(Cl)c(F)c2)C[C@H](C)O1 [Example 298],6.00 to 7.00,
Cn1ccnc1CN1CCc2c(sc3c2c2ncnn2c(=O)n3Cc2ccc(Cl)cc2F)C1 [Example 131],,>7
COc1ccc(Cn2c(=O)n3ncnc3c3cc(-c4cccnc4OC)cnc32)cc1 [Example 191],,>7
COc1ccc(Cn2c(=O)n3ncnc3c3cc(CN4CCN5C(=O)OCC5C4)sc32)cc1 (centres unmarked) [Example 40],,>7
CC(C)CCc1cc2c(s1)n(Cc1ccc(Cl)cc1)c(=O)n1ncnc21 [Example 23],6.00 to 7.00,
COc1ccc(Cn2c(=O)n3ncnc3c3c4c(sc32)CN(Cc2ncccn2)CC4)c(F)c1 [Example 137],,>7
"COc1ccc(Cn2c(=O)n3ncnc3c3c4c(sc32)CN(CC2CNCCO2)CC4)cc1 (centres unmarked) [Example 180, 6-(4-Methoxybenzyl)-9-(morpholin-2-ylmethyl)-8,9,10,11-tetrahydropyrido[4′,3′:4,5]thieno[3,2-e][1,2,4]triazolo[1,5-c]pyrimidin-5(6H)-one]",6.00 to 7.00,
COc1ccc(Cn2c(=O)n3ncnc3c3cc(CN4CCN(C)CC4)sc32)cc1 [Example 32],6.00 to 7.00,

SMILES,pIC50,PDE1B pIC50
COc1ccc(Cn2c(=O)n3ncnc3c3cc(N[C@H]4CCCC[C@@H]4N)cnc32)cc1 [Example 194],5.00 to 6.00,
O=c1n(Cc2cccc(Cl)c2)c2sc(Cc3ccccc3)cc2c2ncnn12 [Example 9],6.00 to 7.00,
COc1ccc(Cn2c(=O)n3ncnc3c3cc(CN4CCN(S(=O)(=O)N(C)C)CC4)cnc32)cc1 [Example 253],,>7
COc1ccc(Cn2c(=O)n3ncnc3c3cc(N(C)CCCN(C)C)cnc32)cc1 [Example 202],5.00 to 6.00,
COc1ccc(Cn2c(=O)n3ncnc3c3ccc(CNc4ccccc4)nc32)cc1 [Example 263],6.00 to 7.00,
CCC1CN(Cc2sc3c(c2C)c2ncnn2c(=O)n3Cc2ccc(OC)cc2)CCO1 (centres unmarked) [Example 68],,>7
COc1ccc(Cn2c(=O)n3ncnc3c3c4c(sc32)CN(Cc2nnc(C)s2)CC4)cc1 [Example 108],,>7
COc1ccc(Cn2c(=O)n3ncnc3c3c4c(sc32)CN(CC2CCOC2)CCC4)cc1 (centres unmarked) [Example 143],,>7
COc1ccc(Cn2c(=O)n3ncnc3c3cc(CN4CCCOCC4)cnc32)cc1 [Example 233],6.00 to 7.00,
COc1ccc(Cn2c(=O)n3ncnc3c3cc(CN4CCC5(CC4)COC5)sc32)cc1 [Example 39],,>7
C[C@@H]1CN(Cc2cnc3c(c2)c2ncnn2c(=O)n3Cc2ccc(-n3cccn3)cc2)C[C@H](C)O1 [Example 289],,<5
COc1ccc(Cn2c(=O)n3ncnc3c3c(C)c(CNCC4(C)COC4)sc32)cc1 [Example 50],,>7
COc1ccc(Cn2c(=O)n3ncnc3c3c4c(sc32)CN(Cc2ccccc2F)CC4)cc1 [Example 128],,>7
C[C@@H]1CN(Cc2cnc3c(c2)c2ncnn2c(=O)n3Cc2ccc(F)cc2)C[C@H](C)O1 [Example 275],6.00 to 7.00,
COc1ccc(Cn2c(=O)n3ncnc3c3c4c(sc32)CN(Cc2ccccn2)CCC4)cc1 [Example 146],,>7
COc1ccc(Cn2c(=O)n3ncnc3c3cc(CN4CCN(C(=O)C5CCOC5)CC4)cnc32)cc1 (centres unmarked) [Example 255],6.00 to 7.00,
COc1ccc(Cn2c(=O)n3ncnc3c3c4c(sc32)CN(S(C)(=O)=O)CC4)cc1 [Example 162],,>7
O=c1n(Cc2ccc(F)cc2)c2sc3c(c2c2ncnn12)CCOC3 [Example 92],5.00 to 6.00,
COc1ccc(Cn2c(=O)n3ncnc3c3c4c(sc32)CN(Cc2nccn2C)CC4)cc1 [Example 122],,>7
Cc1ccccc1Cn1c(=O)n2ncnc2c2cc(CN3C[C@@H](C)O[C@@H](C)C3)cnc21 [Example 283],5.00 to 6.00,
COC[C@@H]1CCCN1Cc1sc2c(c1C)c1ncnn1c(=O)n2Cc1ccc(OC)cc1 [Example 58],,>7
COc1ccc(Cn2c(=O)n3ncnc3c3cc(CN4CCN5C(=O)OCC5C4)cnc32)cc1 (centres unmarked) [Example 246],,>7
O=c1n(Cc2ccc(Cl)c(F)c2)c2sc3c(c2c2ncnn12)CCOC3 [Example 93],6.00 to 7.00,
COc1ccc(Cn2c(=O)n3ncnc3c3c(C)c(CN(CCO)Cc4ccccc4)sc32)cc1 [Example 48],,>7
COc1ccc(Cn2c(=O)n3ncnc3c3c(C)c(CN4CCC(O)CC4)sc32)cc1 [Example 47],,>7

SMILES,pIC50,PDE1B pIC50
Cc1cc2c(s1)n(Cc1ccccc1Cl)c(=O)n1ncnc21 [Example 13],5.00 to 6.00,
COc1ccc(Cn2c(=O)n3ncnc3c3c4c(sc32)CN(CC2COCCO2)CC4)cc1 (centres unmarked) [Example 125],,>7
Cc1cc2c(s1)n(Cc1cccc(Cl)c1)c(=O)n1ncnc21 [Example 16],5.00 to 6.00,
COc1ccc(Cn2c(=O)n3ncnc3c3c4c(sc32)N(C(=O)C2CCOC2)CCC4)cc1 (centres unmarked) [Example 175],,>7
COc1ccc(Cn2c(=O)n3ncnc3c3c4c(sc32)CN(Cc2nccn2C)CCC4)cc1 [Example 144],,>7
"COc1ccc(Cn2c(=O)n3ncnc3c3cc(CCN)cnc32)cc1 [Example 211, 9-(2-Aminoethyl)-6-(4-methoxybenzyl)pyrido[3,2-e][1,2,4]triazolo[1,5-c]pyrimidin-5(6H)-one]",5.00 to 6.00,
COc1ccc(Cn2c(=O)n3ncnc3c3c4c(sc32)COCC4)cc1F [Example 95],6.00 to 7.00,
COc1ccc(Cn2c(=O)n3ncnc3c3c4c(sc32)CN(CC2CC2)CC4)cc1 [Example 110],,>7
COc1ccc(Cn2c(=O)n3ncnc3c3c4c(sc32)N(Cc2cccc(Cl)c2)CCC4)cc1OC [Example 155],5.00 to 6.00,
C[C@@H]1CN(Cc2cnc3c(c2)c2ncnn2c(=O)n3Cc2ccc(Cl)cc2)C[C@H](C)O1 [Example 210],6.00 to 7.00,
COc1ccc(Cn2c(=O)n3ncnc3c3c(C)c(CNCc4cccnc4)sc32)cc1 [Example 52],,>7
COc1ccc(Cn2c(=O)n3ncnc3c3ccc(CNCC4(C)COC4)nc32)cc1 [Example 258],5.00 to 6.00,
COc1ccc(Cn2c(=O)n3ncnc3c3ccc(CN(C)CC4CCOC4)nc32)cc1 (centres unmarked) [Example 259],6.00 to 7.00,
COc1ccc(Cn2c(=O)n3ncnc3c3c4c(sc32)CN(CC2CCC(=O)O2)CC4)cc1 (centres unmarked) [Example 126],,>7
COc1ccc(Cn2c(=O)n3ncnc3c3ncc(CN4CCN(C)CC4)cc32)cc1 [Example 240],5.00 to 6.00,
O=c1n(Cc2ccccc2)c2sc3c(c2c2ncnn12)CCCC3 [Example 84],6.00 to 7.00,
CC(C)CCc1cc2c(s1)n(Cc1ccccc1)c(=O)n1ncnc21 [Example 25],6.00 to 7.00,
COc1ccc(Cn2c(=O)n3ncnc3c3c(C)c(CN(C)CC4CCCO4)sc32)cc1 (centres unmarked) [Example 54],,>7
COc1ccc(Cn2c(=O)n3ncnc3c3cc(CN4C[C@@H](C)N[C@@H](C)C4)cnc32)cc1 [Example 250],5.00 to 6.00,
Cc1csc2c1c1ncnn1c(=O)n2Cc1ccc(Cl)cc1 [Example 3],6.00 to 7.00,
COc1ccc(Cn2c(=O)n3ncnc3c3c4c(sc32)CN(CC2CCCOC2)CC4)cc1 (centres unmarked) [Example 134],,>7
"COc1ccc(Cn2c(=O)n3ncnc3c3c4c(sc32)CN(c2ccccn2)CC4)cc1 [Example 179, 6-(4-Methoxybenzyl)-9-(pyridin-2-yl)-8,9,10,11-tetrahydropyrido[4′,3′:4,5]thieno[3,2-e][1,2,4]triazolo[1,5-c]pyrimidin-5(6H)-one]",,>7
COc1ccc(Cn2c(=O)n3ncnc3c3cc(CN4CC(F)(F)OC(F)(F)C4)cnc32)cc1 [Example 226],6.00 to 7.00,
"COc1ccc(Cn2c(=O)n3ncnc3c3cc(Br)cnc32)cc1 [Example 185, 9-Bromo-6-(4-methoxybenzyl)pyrido[3,2-e][1,2,4]triazolo[1,5-c]pyrimidin-5(6H)-one]",6.00 to 7.00,
